According to PubChem BioAssay AID1996:
≈ marks a conversion by molar mass, not a printed value.

Conditions: buffer; pH 7.4; 200.0 µM

Compound	solubility kinetic
Clc1ccc(-c2ccc(CN3CCCCC3)o2)cc1	30.1 µg/mL (≈ 109 µM)
Cc1ccc(S(=O)(=O)CC(=O)Nc2ccccn2)cc1	42.3 µg/mL (≈ 146 µM)
CCOC(=O)C(Cc1ccc(Cl)cc1Cl)c1ccno1 (centres undefined)	11.7 µg/mL (≈ 37.2 µM)
COCCCn1c(=O)cc(C)[nH]c1=S	> 32.1 µg/mL
O=C(O)CC(NC(=O)C12CC3CC(CC(C3)C1)C2)c1ccc(F)cc1 (centres undefined)	> 51.8 µg/mL
COc1ccc(Nc2nc3c(C)cccn3c(=O)c2C=O)cc1	< 0.2 µg/mL
C=CCn1c(O)c(/C=N/NC(=O)c2ccncc2)c(=O)[nH]c1=O	> 47.3 µg/mL
Cc1ccc(C(=O)Nc2ccc3ccccc3c2)cc1	< 0.6 µg/mL
COc1ccc(NC(=O)CSc2ccc3c(c2)OCCO3)cc1	46.1 µg/mL (≈ 139 µM)
COC(=O)c1ccccc1NC(=O)NC1CCCCC1	2.6 µg/mL (≈ 9.41 µM)
N#Cc1ccc(Cn2c(-c3ccc(F)cc3)noc2=O)cc1	37.6 µg/mL (≈ 127 µM)
CC(C)C(=O)NC(=S)Nc1c(Cl)ccc2nsnc12	40.1 µg/mL (≈ 127 µM)
CC(C)CN1C(=O)C(=Nc2cccnc2)c2ccccc21	> 41.9 µg/mL
O=S(=O)(Nc1ccc(Br)cn1)c1ccc2ccccc2c1	1.3 µg/mL (≈ 3.58 µM)
Cc1cc(OCC(=O)N2CCC(C(=O)O)CC2)c2c(C)cc(=O)oc2c1	> 53.9 µg/mL
O=c1[nH]cc(S(=O)(=O)Nc2ccc3c(c2)OCO3)c(=O)[nH]1	> 46.7 µg/mL
N#C/C(=C\c1ccc(Cl)cc1)C(=O)NC1CC1	5 µg/mL (≈ 20.3 µM)
CC(=O)Nc1ccc2oc(-c3ccccc3)nc2c1	13.1 µg/mL (≈ 51.9 µM)
CC(=O)c1ccc(NC(=O)COC(=O)C2CC3C=CC2C3)cc1 (centres undefined)	> 47 µg/mL
CSc1nccc(-c2c(-c3ccc(Cl)cc3)noc2C)n1	4.6 µg/mL (≈ 14.5 µM)

Compound	solubility kinetic
Cc1c(C(=O)Nc2cccc(S(=O)(=O)N3CCOCC3)c2)oc2ccccc12	2.3 µg/mL (≈ 5.74 µM)
O=C1NC(=O)N(Cc2ccccc2)C(=O)/C1=C/C=C/c1ccco1	8.8 µg/mL (≈ 27.3 µM)
O=C(Nc1cccnc1Cl)c1cc(-c2ccc(O)cc2)on1	< 0.2 µg/mL
CCS(=O)(=O)Nc1cccc(C(=O)O)c1	30.5 µg/mL (≈ 133 µM)
O=C(CN1C(=O)NC2(CCCC2)C1=O)NC(c1ccccc1)c1ccccc1	14.5 µg/mL (≈ 38.4 µM)
Cn1ccnc1-c1ccc(-c2nccn2C)cc1	33.8 µg/mL (≈ 142 µM)
CCOc1cc(CC(=O)N[C@@H](CC(C)C)c2ccccc2N2CCCCC2)ccc1C(=O)O	> 67.9 µg/mL
O=C(Nc1ccc(Cl)cc1)c1ccco1	30.8 µg/mL (≈ 139 µM)
COC(=O)c1sccc1NC(=S)Nc1ccc(F)cc1F	42 µg/mL (≈ 128 µM)
CN(CC(=O)Nc1ccc(F)cc1)C(=O)c1ccccc1OCc1ccc(F)cc1	30.4 µg/mL (≈ 74.1 µM)
COc1cc(/C=C2\SC(=O)N(CCNC(=O)c3c(C)noc3C)C2=O)cc(OC)c1OC	4.8 µg/mL (≈ 10.4 µM)
Cc1ccc(S(=O)(=O)CCc2nc3ccccc3[nH]2)cc1C	> 47.2 µg/mL
O=C(Nc1ccc(F)cc1F)c1ccc2ncsc2c1	27.4 µg/mL (≈ 94.4 µM)
CN(C(=O)c1cccs1)C1(C)CCS(=O)(=O)C1 (centres undefined)	> 41 µg/mL
CCOC(=O)c1c(C)[nH]c(C)c1C(=O)COC(=O)c1cccnc1OCC	> 56.2 µg/mL
Cc1ccc(C(=O)COC(=O)c2nc(Cl)ccc2Cl)cc1	48.4 µg/mL (≈ 149 µM)
COc1ccccc1C(=O)OCC(=O)Nc1cccc(S(=O)(=O)NC2=NCCCCC2)c1	> 68.9 µg/mL
Clc1ccc(N=C2SCCS2)cc1	11 µg/mL (≈ 47.9 µM)
NC(=O)Cn1ccc(O)c(Cc2ccc(Cl)cc2Cl)c1=O	> 49.1 µg/mL
CCN(CC(=O)Nc1ccc2c(c1)OCCO2)S(=O)(=O)c1ccc(F)cc1	> 59.2 µg/mL

Compound	solubility kinetic
O=[N+]([O-])c1ccc(CSc2ccccn2)cc1	15.2 µg/mL (≈ 61.7 µM)
O=C(Nc1ccccc1[N+](=O)[O-])C1(c2ccccc2)CCOCC1	42.3 µg/mL (≈ 130 µM)
COc1cc(/C=C/C(=O)NCC2CCCCC2)cc(OC)c1OC	< 0.7 µg/mL
CCCC(=O)Oc1ccc(C2NC(=O)c3ccccc3O2)cc1 (centres undefined)	< 0.7 µg/mL
Nc1cccc([N+](=O)[O-])c1	16.7 µg/mL (≈ 121 µM)
O=c1cccc2n1CC1CNCC2C1 (centres undefined)	> 28.5 µg/mL
O=C(O)c1ccccc1-n1cccc1C(=O)O	> 34.7 µg/mL
CCOc1ccccc1C(=O)Nc1cccc2cccnc12	< 0.3 µg/mL
CC(=O)SCC[N+](C)(C)C.[Cl-]	29.4 µg/mL
O=C(O)CC1S/C(=N/N=C/c2ccccn2)NC1=O (centres undefined)	> 41.7 µg/mL
CC(C)=CC(=O)Nc1ccc(S(=O)(=O)Nc2onc(C)c2C)cc1	> 52.4 µg/mL
COc1nccc(C(F)(F)F)c1C(=O)Nc1ccc(Cl)cc1	1.6 µg/mL (≈ 4.84 µM)
CCCC1C2C(=O)N(c3cccc(C)c3)C(=O)C2ON1c1ccccc1 (centres undefined)	51.1 µg/mL (≈ 146 µM)
Cc1ccc(C(=O)Nc2ccccc2C(=O)N2CCCCCC2)cc1	> 50.5 µg/mL
COc1ccc(C(=O)Nc2ccc(CN3CCOCC3)cc2)cc1Br	14.1 µg/mL (≈ 34.8 µM)
CCCOC(=O)Nc1sc2c(c1C(N)=O)CCCC2	1.3 µg/mL (≈ 4.6 µM)
Cc1ccc(C)c(NC(=O)CCN2C(=O)c3ccccc3C2=O)c1	1.2 µg/mL (≈ 3.72 µM)
Cc1onc(-c2ccccc2Cl)c1C(=O)N1CCCC1	> 43.6 µg/mL
Cc1nn(C)c(C)c1/C=C(/C(=O)C(C)C)n1cncn1	> 41 µg/mL
